# In patent publication US8586768B2, “Design, synthesis and functional characterization of rottlerin analogs” (priority 2009, dated 2013):
# Columns and labels:
# PKCα = target: T1, PKCα (Homo sapiens, UniProt P17252); assay: In-vitro kinase profiling, radioisotope screening assay (Signal Chem); format: biochemical; conditions: 5 μM compound, 50 μM ATP, vs vehicle control; negative = inhibition
# T1 construct: purchased Signal Chem (Richmond, BC, Canada)
# Protocol: (§1) Kinase profiling of PK analogs. The inhibitory effect of lead PK analogs were tested against a panel of 15 protein kinase targets (TABLE 1) to develop better lead candidates without “off” target effects. The selectivity assay was performed at Signal Chem™ (Richmond, BC, Canada) by profiling against protein kinase targets using the “Gold Standard” radioisotope screening assay format. This assay format gave the highest signal noise ratio and allowed the direct measurement of catalytic activity of a protein kinase.
# (§2) All assays were performed in triplicate in a 96-well assay format and the % error between triplicates is <10%. Protein kinase assays was performed in the presence of 50 μM ATP at 30° C. for 15 min. The activity of the enzymes in the presence of 5 μM PK analogs was compared to that in the vehicle control and expressed as a percent change in activity relative to that observed in the vehicle control. In TABLE 1, the results are expressed as percent activity change compared to control. The intra-assay variability was determined to be less than 10%. Inhibition of target activity by the compound is shown by a negative value, while activation of target activity is shown by positive value, with values >10% considered to be highly significant.
# ASK1 = target: T2, ASK1 (Homo sapiens, UniProt Q99683); assay: as above; format: biochemical; conditions: 5 μM compound, 50 μM ATP, vs vehicle control; negative = inhibition
# T2 construct: purchased Signal Chem (Richmond, BC, Canada)
# T2 sequence (Q99683 1-1374): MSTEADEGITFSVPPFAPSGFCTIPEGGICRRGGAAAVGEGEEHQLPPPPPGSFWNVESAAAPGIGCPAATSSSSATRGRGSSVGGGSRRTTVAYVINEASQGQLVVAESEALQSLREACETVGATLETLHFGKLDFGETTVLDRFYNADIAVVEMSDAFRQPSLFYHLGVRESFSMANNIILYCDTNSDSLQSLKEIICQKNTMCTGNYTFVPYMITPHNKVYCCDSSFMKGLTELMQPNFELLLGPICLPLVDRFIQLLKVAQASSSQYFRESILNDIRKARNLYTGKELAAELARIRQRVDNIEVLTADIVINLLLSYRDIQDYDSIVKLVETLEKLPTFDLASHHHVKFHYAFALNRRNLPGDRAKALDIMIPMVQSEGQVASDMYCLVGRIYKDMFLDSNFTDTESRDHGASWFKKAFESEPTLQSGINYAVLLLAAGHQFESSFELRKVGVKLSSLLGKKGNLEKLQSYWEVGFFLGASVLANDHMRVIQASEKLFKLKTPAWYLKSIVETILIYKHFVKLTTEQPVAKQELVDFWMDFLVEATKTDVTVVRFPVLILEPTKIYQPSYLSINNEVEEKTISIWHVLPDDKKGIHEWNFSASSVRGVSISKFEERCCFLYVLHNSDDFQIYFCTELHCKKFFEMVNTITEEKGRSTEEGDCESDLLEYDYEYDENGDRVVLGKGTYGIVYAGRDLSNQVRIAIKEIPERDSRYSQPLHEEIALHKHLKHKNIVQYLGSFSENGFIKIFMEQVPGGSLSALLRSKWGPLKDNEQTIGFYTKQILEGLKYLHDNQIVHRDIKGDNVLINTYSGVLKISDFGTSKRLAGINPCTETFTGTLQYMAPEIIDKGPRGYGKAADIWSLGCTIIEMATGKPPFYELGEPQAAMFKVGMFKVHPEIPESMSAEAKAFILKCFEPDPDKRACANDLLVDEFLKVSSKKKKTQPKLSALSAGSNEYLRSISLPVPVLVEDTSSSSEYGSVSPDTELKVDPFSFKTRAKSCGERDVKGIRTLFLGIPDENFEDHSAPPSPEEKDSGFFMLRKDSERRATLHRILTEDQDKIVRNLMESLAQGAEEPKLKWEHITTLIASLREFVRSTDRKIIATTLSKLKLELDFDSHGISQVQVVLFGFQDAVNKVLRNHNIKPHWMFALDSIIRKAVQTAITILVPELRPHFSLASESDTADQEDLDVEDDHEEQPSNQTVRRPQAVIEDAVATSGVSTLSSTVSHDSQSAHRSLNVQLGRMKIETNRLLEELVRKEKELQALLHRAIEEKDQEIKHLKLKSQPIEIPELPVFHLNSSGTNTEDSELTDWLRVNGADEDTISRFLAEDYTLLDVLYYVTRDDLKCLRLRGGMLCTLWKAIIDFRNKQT
# Protocol: as §1, §2
# CamK2a = target: T3, CamK2a (Homo sapiens, UniProt Q9UQM7); assay: as above; format: biochemical; conditions: 5 μM compound, 50 μM ATP, vs vehicle control; negative = inhibition
# T3 construct: purchased Signal Chem (Richmond, BC, Canada)
# T3 sequence (Q9UQM7 whole entry): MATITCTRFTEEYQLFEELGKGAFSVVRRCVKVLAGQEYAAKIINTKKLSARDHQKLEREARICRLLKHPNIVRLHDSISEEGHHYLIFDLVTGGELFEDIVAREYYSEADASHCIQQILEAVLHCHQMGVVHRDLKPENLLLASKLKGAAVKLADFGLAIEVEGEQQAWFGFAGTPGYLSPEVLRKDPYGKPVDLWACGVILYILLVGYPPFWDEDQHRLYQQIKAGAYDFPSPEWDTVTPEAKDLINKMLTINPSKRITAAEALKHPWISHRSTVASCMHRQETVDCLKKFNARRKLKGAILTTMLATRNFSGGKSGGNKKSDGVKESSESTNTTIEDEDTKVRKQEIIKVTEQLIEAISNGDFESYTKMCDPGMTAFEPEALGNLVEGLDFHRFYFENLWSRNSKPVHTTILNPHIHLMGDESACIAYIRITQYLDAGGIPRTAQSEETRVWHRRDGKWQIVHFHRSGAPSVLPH
# Protocol: as §1, §2
# AKT1 = target: T4, AKT1 (Homo sapiens, UniProt P31749); assay: as above; format: biochemical; conditions: for % activity change: 5 μM compound, 50 μM ATP, vs vehicle control, negative = inhibition
# T4 construct: purchased Signal Chem (Richmond, BC, Canada)
# T4 sequence (P31749 whole entry): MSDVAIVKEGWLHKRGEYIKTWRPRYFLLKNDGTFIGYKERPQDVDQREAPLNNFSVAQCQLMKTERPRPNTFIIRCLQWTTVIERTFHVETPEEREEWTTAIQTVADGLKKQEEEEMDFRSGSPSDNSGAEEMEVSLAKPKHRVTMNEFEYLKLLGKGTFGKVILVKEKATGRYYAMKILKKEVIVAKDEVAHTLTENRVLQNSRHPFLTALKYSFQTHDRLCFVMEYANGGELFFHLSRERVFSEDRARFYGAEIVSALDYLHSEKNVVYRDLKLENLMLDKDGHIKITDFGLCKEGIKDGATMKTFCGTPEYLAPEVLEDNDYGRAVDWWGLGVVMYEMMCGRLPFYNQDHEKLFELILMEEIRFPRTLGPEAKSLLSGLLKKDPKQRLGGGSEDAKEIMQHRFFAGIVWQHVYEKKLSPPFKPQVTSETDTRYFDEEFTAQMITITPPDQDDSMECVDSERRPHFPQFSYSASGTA
# Protocol: as §1, §2
# PKCη = target: T5, PKCη (Homo sapiens, UniProt P24723); assay: as above; format: biochemical; conditions: 5 μM compound, 50 μM ATP, vs vehicle control; negative = inhibition
# T5 construct: purchased Signal Chem (Richmond, BC, Canada)
# T5 sequence (P24723 whole entry): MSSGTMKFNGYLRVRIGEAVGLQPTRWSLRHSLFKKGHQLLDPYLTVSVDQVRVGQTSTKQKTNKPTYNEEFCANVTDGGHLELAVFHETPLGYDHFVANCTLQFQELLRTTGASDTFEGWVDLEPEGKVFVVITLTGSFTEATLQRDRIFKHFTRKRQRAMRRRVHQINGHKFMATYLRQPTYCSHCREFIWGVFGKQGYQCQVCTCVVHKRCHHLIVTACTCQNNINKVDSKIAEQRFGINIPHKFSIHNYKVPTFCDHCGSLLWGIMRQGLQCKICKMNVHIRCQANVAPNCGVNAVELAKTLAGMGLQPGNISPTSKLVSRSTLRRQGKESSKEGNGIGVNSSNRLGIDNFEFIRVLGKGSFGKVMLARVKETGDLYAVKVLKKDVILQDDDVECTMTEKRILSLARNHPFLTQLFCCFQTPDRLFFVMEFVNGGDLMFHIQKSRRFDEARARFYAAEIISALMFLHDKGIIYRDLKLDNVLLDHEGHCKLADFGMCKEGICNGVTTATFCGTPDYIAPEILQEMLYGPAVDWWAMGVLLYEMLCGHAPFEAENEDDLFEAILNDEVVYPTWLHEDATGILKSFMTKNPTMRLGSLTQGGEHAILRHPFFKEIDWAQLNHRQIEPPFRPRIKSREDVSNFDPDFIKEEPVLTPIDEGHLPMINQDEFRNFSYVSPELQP
# Protocol: as §1, §2
# [1] = system: caspase-3 activity in N27 cells; assay: MPP+-induced caspase-3 activity assay in N27 cells; format: cell-based, rat; conditions: for relative protection against MPP+-induced caspase-3 activity within the generation / blockage of MPP+-induced caspase-3 activity: 300 μM MPP+ 24 hr; for relative protection against MPP+-induced caspase-3 activity within the generation: 0.3-10 μM; for blockage of MPP+-induced caspase-3 activity: co-treated with 0.3, 1, 3 and 10 μM
# Protocol: To determine whether PK analogs are neuroprotective against MPP+-induced increases in caspase-3 and DNA fragmentation, their effects on MPP+-induced increases in caspase-3 activity and DNA fragmentation, markers of apoptotic cell death, were examined.
# The second generation PK analogs were further tested to determine whether the analogs are neuroprotective against MPP+-induced apoptotic cell death. The effects on MPP+-induced increases in caspase-3 enzymatic activity were analyzed, a marker of apoptotic cell death. […] At the end of the treatment, cytotoxicity was measured using the caspase-3 assay in a 96-well fluorescence microplate reader.
# The third generation PK analogs were further tested to determine whether the analogs are neuroprotective against MPP+-induced apoptotic cell death. The effects on MPP+-induced increases in caspase-3 enzymatic activity were examined, a marker of apoptotic cell death. N27 cells were exposed to 300 μM MPP+ for 24 hr in the presence or absence of three different PK compounds in the dose range of 0.3-10 μM. At the end of the treatment, cytotoxicity was measured using the caspase-3 assay in a 96-well fluorescence microplate reader.
# Rat mesencephalic dopaminergic clonal cells (N27) were used and maintained in RPMI 1640 complete medium supplemented with 10% Fetal Bovine Serum, 1% […] and 1% Penicillin/Streptomycin in a 37° C. incubator with 5% CO2. After 4-6 days in culture, the cells were used for the experiments.
# N27 cells were exposed to MPP^+ for 24 hr in the presence or absence of PK analogs in the dose range of 1-30 μM.
Compound,% activity change (PKCα) [%],% activity change (ASK1) [%],% activity change (CamK2a) [%],% activity change (AKT1) [%],% activity change (PKCη) [%],blockage of MPP+-induced increases in caspase-3 activation ([1]; co-treated with 3 μM),"inhibited by % compared to control (AKT1; 5 μM concentration, given as positive inhibition) [%]",relative protection against MPP+-induced caspase-3 activity within the generation [1],blockage of MPP+-induced caspase-3 activity [1],"inhibition at 5 µM (AKT1; 5 μM concentration, given as positive inhibition, read-out: inhibited by % compared to control) [%]"
Oc1cc(O)c(Cc2c(O)cc(O)cc2O)c(O)c1 [PK103],−1,0,6,−6,7,significant blockage,,,,
CC(=O)c1c(O)c(C)c(O)c(Cc2c(O)c3c(c4c2OC(c2ccccc2)CC4=O)OC(C)(C)C=C3)c1O (stereo not drawn) [PK202],9,4,6,−12,15,,12,more effectively protects,dose-dependent blockage,
CC1(C)C=Cc2c(O)cc(O)c(C(=O)/C=C/c3ccccc3)c2O1 [PK302],13,0,5,−10,19,,,more effectively protect,significant blockage,
"CC(=O)c1c(O)c(C)c(O)c(Cc2c(O)c3c(c(C(=O)/C=C/c4ccccc4)c2O)OC(C)(C)C=C3)c1O [Rottlerin, (E)-1-[6-[(3-acetyl-2,4,6-trihydroxy-5-methylphenyl)methyl]-5,7-dihydroxy-2,2-dimethylchromen-8-yl]-3-phenylprop-2-en-1-one]",−7,2,7,−14,12,,,,,14
